In patent US9623016B2, “Antibacterial compounds” (Emergent Virology LLC, priority 2013, dated 2017):
Read-outs that look alike come from different tables or passages of the source.

What was measured:
S. aureus (8324-5) = tested on: S. aureus (8324-5)
Experimental: (§1) The MIC assay is a technique used to determine the lowest concentration of a particular antibiotic needed to inhibit visible growth of bacteria. In this method, two fold serial dilutions of the compound were prepared in broth media. An inoculum of overnight bacterial cultures will be prepared in the same broth medium. The serial dilution tubes will be inoculated with 0.025 ml of undiluted over-night culture (1:100), a 1×10-2 dilution (1:10,000), or a 1×10-4 dilution (1:1,000,000) of bacterial suspension. Results were recorded after 24 hour incubation at 35° C. without shaking by measuring OD600. The MIC is determined by the lowest concentration of compound where no growth is visible.

E. coli (K12) = tested on: E. coli (K12)
Experimental: as §1

Streptococcus pneumoniae = conditions: Based on SBA agar (not confirmatory)
Experimental: as §1

P. aeruginosa 4858 = tested on: P. aeruginosa 4858
Experimental: as §1

P. aeruginosa 4961 = tested on: P. aeruginosa 4961
Experimental: as §1

S. aureus (Col) = tested on: S. aureus (Col)
Experimental: as §1

E. coli (WT) = tested on: E. coli (WT)
Experimental: as §1

B. subtilis = tested on: B. subtilis
Experimental: as §1

S. aureus (USA300) = assay: Minimum Inhibitory Concentration (MIC); type: cell-based
Experimental: as §1

COCCCCCCCCCN1C[C@H](O)[C@@H](O)[C@H](O)[C@H]1CO.Cl [UV-4B, hydrochloric acid salt of N-(9-Methoxynonyl)deoxynojirimycin]
MIC (S. aureus (8324-5); Table 3, two independent tests): 2.5 mg/mL | MIC (S. aureus (8324-5); Table 4): 1.25 mg/mL | growth (OD600) (S. aureus (8324-5); Table 4, 0.02 mg/ml): + (+ OD600 <0.05) | growth (OD600) (S. aureus (8324-5); Table 4, 0.04 mg/ml): + (+ OD600 <0.05) | growth (OD600) (S. aureus (8324-5); Table 4, 0.08 mg/ml): + (+ OD600 <0.05) | growth (OD600) (S. aureus (8324-5); Table 4, 0.16 mg/ml): + (+ OD600 <0.05) | growth (OD600) (S. aureus (8324-5); Table 4, 0.31 mg/ml): + (+ OD600 <0.05) | growth (OD600) (S. aureus (8324-5); Table 4, 0.63 mg/ml): + (+ OD600 <0.05) | growth (OD600) (S. aureus (8324-5); Table 4, 2.50 mg/ml): − (− OD600 >0.05) | growth (OD600) (S. aureus (8324-5); Table 4, 5 mg/ml): − (− OD600 >0.05) | growth (OD600) (S. aureus (8324-5); Table 4, 10 mg/ml): − (− OD600 >0.05) | growth (OD600) (S. aureus (8324-5); Table 4, 20 mg/ml): − (− OD600 >0.05) | visible growth (S. aureus (8324-5); UV-4B 0.04 mg/ml): + | visible growth (S. aureus (8324-5); UV-4B 0.08 mg/ml): + | visible growth (S. aureus (8324-5); UV-4B 0.16 mg/ml): + | visible growth (S. aureus (8324-5); UV-4B 0.31 mg/ml): + | visible growth (S. aureus (8324-5); UV-4B 0.63 mg/ml): + | visible growth (S. aureus (8324-5); UV-4B 2.50 mg/ml): − | visible growth (S. aureus (8324-5); UV-4B 5 mg/ml): − | visible growth (S. aureus (8324-5); UV-4B 10 mg/ml): − | visible growth (S. aureus (8324-5); UV-4B 20 mg/ml): − | MIC (E. coli (K12); Table 3): 5 mg/mL | visible growth (E. coli (K12); UV-4B 0.04 mg/ml): + | visible growth (E. coli (K12); UV-4B 0.08 mg/ml): + | visible growth (E. coli (K12); UV-4B 0.16 mg/ml): + | visible growth (E. coli (K12); UV-4B 0.31 mg/ml): + | visible growth (E. coli (K12); UV-4B 0.63 mg/ml): + | visible growth (E. coli (K12); UV-4B 2.50 mg/ml): + | visible growth (E. coli (K12); UV-4B 5 mg/ml): − | visible growth (E. coli (K12); UV-4B 10 mg/ml): − | visible growth (E. coli (K12); UV-4B 20 mg/ml): − | MIC (Streptococcus pneumoniae; Table 3): 10 mg/mL | visible growth (Streptococcus pneumoniae; UV-4B 0.04 mg/ml): + | visible growth (Streptococcus pneumoniae; UV-4B 0.08 mg/ml): + | visible growth (Streptococcus pneumoniae; UV-4B 0.16 mg/ml): + | visible growth (Streptococcus pneumoniae; UV-4B 0.31 mg/ml): + | visible growth (Streptococcus pneumoniae; UV-4B 0.63 mg/ml): + | visible growth (Streptococcus pneumoniae; UV-4B 2.50 mg/ml): + | visible growth (Streptococcus pneumoniae; UV-4B 5 mg/ml): + | visible growth (Streptococcus pneumoniae; UV-4B 10 mg/ml): − | MIC (P. aeruginosa 4858; Table 3): 5 mg/mL | MIC (P. aeruginosa 4858; Table 4): 2.5 mg/mL | growth (OD600) (P. aeruginosa 4858; Table 4, 0.02 mg/ml): + (+ OD600 <0.05) | growth (OD600) (P. aeruginosa 4858; Table 4, 0.04 mg/ml): + (+ OD600 <0.05) | growth (OD600) (P. aeruginosa 4858; Table 4, 0.08 mg/ml): + (+ OD600 <0.05) | growth (OD600) (P. aeruginosa 4858; Table 4, 0.16 mg/ml): + (+ OD600 <0.05) | growth (OD600) (P. aeruginosa 4858; Table 4, 0.31 mg/ml): + (+ OD600 <0.05) | growth (OD600) (P. aeruginosa 4858; Table 4, 0.63 mg/ml): + (+ OD600 <0.05) | growth (OD600) (P. aeruginosa 4858; Table 4, 2.50 mg/ml): − (− OD600 >0.05) | growth (OD600) (P. aeruginosa 4858; Table 4, 5 mg/ml): − (− OD600 >0.05) | growth (OD600) (P. aeruginosa 4858; Table 4, 10 mg/ml): − (− OD600 >0.05) | growth (OD600) (P. aeruginosa 4858; Table 4, 20 mg/ml): − (− OD600 >0.05) | visible growth (P. aeruginosa 4858; UV-4B 0.63 mg/ml): + | visible growth (P. aeruginosa 4858; UV-4B 2.50 mg/ml): + | visible growth (P. aeruginosa 4858; UV-4B 5 mg/ml): − | visible growth (P. aeruginosa 4858; UV-4B 10 mg/ml): − | visible growth (P. aeruginosa 4858; UV-4B 20 mg/ml): − | MIC (P. aeruginosa 4961; Table 3): 5 mg/mL | visible growth (P. aeruginosa 4961; UV-4B 0.04 mg/ml): + | visible growth (P. aeruginosa 4961; UV-4B 0.08 mg/ml): + | visible growth (P. aeruginosa 4961; UV-4B 0.16 mg/ml): + | visible growth (P. aeruginosa 4961; UV-4B 0.31 mg/ml): + | visible growth (P. aeruginosa 4961; UV-4B 0.63 mg/ml): + | visible growth (P. aeruginosa 4961; UV-4B 2.50 mg/ml): + | visible growth (P. aeruginosa 4961; UV-4B 5 mg/ml): − | visible growth (P. aeruginosa 4961; UV-4B 10 mg/ml): − | visible growth (P. aeruginosa 4961; UV-4B 20 mg/ml): − | MIC (S. aureus (Col); Table 3): 2.5 mg/mL | MIC (S. aureus (Col); Table 4): 0.625 mg/mL | growth (OD600) (S. aureus (Col); Table 4, 0.02 mg/ml): + (+ OD600 <0.05) | growth (OD600) (S. aureus (Col); Table 4, 0.04 mg/ml): + (+ OD600 <0.05) | growth (OD600) (S. aureus (Col); Table 4, 0.08 mg/ml): + (+ OD600 <0.05) | growth (OD600) (S. aureus (Col); Table 4, 0.16 mg/ml): + (+ OD600 <0.05) | growth (OD600) (S. aureus (Col); Table 4, 0.31 mg/ml): + (+ OD600 <0.05) | growth (OD600) (S. aureus (Col); Table 4, 0.63 mg/ml): − (− OD600 >0.05) | growth (OD600) (S. aureus (Col); Table 4, 2.50 mg/ml): − (− OD600 >0.05) | growth (OD600) (S. aureus (Col); Table 4, 5 mg/ml): − (− OD600 >0.05) | growth (OD600) (S. aureus (Col); Table 4, 10 mg/ml): − (− OD600 >0.05) | growth (OD600) (S. aureus (Col); Table 4, 20 mg/ml): − (− OD600 >0.05) | visible growth (S. aureus (Col); UV-4B 0.02 mg/ml): + | visible growth (S. aureus (Col); UV-4B 0.04 mg/ml): + | visible growth (S. aureus (Col); UV-4B 0.08 mg/ml): + | visible growth (S. aureus (Col); UV-4B 0.16 mg/ml): + | visible growth (S. aureus (Col); UV-4B 0.31 mg/ml): + | visible growth (S. aureus (Col); UV-4B 0.63 mg/ml): + | visible growth (S. aureus (Col); UV-4B 2.50 mg/ml): − | visible growth (S. aureus (Col); UV-4B 5 mg/ml): − | visible growth (S. aureus (Col); UV-4B 10 mg/ml): − | MIC (E. coli (WT); Table 3): 5 mg/mL | visible growth (E. coli (WT); UV-4B 0.02 mg/ml): + | visible growth (E. coli (WT); UV-4B 0.04 mg/ml): + | visible growth (E. coli (WT); UV-4B 0.08 mg/ml): + | visible growth (E. coli (WT); UV-4B 0.16 mg/ml): + | visible growth (E. coli (WT); UV-4B 0.31 mg/ml): + | visible growth (E. coli (WT); UV-4B 0.63 mg/ml): + | visible growth (E. coli (WT); UV-4B 2.50 mg/ml): + | visible growth (E. coli (WT); UV-4B 5 mg/ml): − | visible growth (E. coli (WT); UV-4B 10 mg/ml): − | MIC (B. subtilis; Table 3): 2.5 mg/mL | MIC (B. subtilis; Table 4): 0.625 mg/mL | growth (OD600) (B. subtilis; Table 4, 0.02 mg/ml): + (+ OD600 <0.05) | growth (OD600) (B. subtilis; Table 4, 0.04 mg/ml): + (+ OD600 <0.05) | growth (OD600) (B. subtilis; Table 4, 0.08 mg/ml): + (+ OD600 <0.05) | growth (OD600) (B. subtilis; Table 4, 0.16 mg/ml): + (+ OD600 <0.05) | growth (OD600) (B. subtilis; Table 4, 0.31 mg/ml): + (+ OD600 <0.05) | growth (OD600) (B. subtilis; Table 4, 0.63 mg/ml): − (− OD600 >0.05) | growth (OD600) (B. subtilis; Table 4, 2.50 mg/ml): − (− OD600 >0.05) | growth (OD600) (B. subtilis; Table 4, 5 mg/ml): − (− OD600 >0.05) | growth (OD600) (B. subtilis; Table 4, 10 mg/ml): − (− OD600 >0.05) | growth (OD600) (B. subtilis; Table 4, 20 mg/ml): − (− OD600 >0.05) | visible growth (B. subtilis; UV-4B 0.02 mg/ml): + | visible growth (B. subtilis; UV-4B 0.04 mg/ml): + | visible growth (B. subtilis; UV-4B 0.08 mg/ml): + | visible growth (B. subtilis; UV-4B 0.16 mg/ml): + | visible growth (B. subtilis; UV-4B 0.31 mg/ml): + | visible growth (B. subtilis; UV-4B 0.63 mg/ml): + | visible growth (B. subtilis; UV-4B 2.50 mg/ml): − | visible growth (B. subtilis; UV-4B 5 mg/ml): − | visible growth (B. subtilis; UV-4B 10 mg/ml): − | MIC (S. aureus (USA300); Table 3, two independent tests): 2.5 mg/mL | MIC (S. aureus (USA300); Table 4): 0.0625 mg/mL | growth (OD600) (S. aureus (USA300); Table 4, 0.02 mg/ml): + (+ OD600 <0.05) | growth (OD600) (S. aureus (USA300); Table 4, 0.04 mg/ml): + (+ OD600 <0.05) | growth (OD600) (S. aureus (USA300); Table 4, 0.08 mg/ml): + (+ OD600 <0.05) | growth (OD600) (S. aureus (USA300); Table 4, 0.16 mg/ml): + (+ OD600 <0.05) | growth (OD600) (S. aureus (USA300); Table 4, 0.31 mg/ml): + (+ OD600 <0.05) | growth (OD600) (S. aureus (USA300); Table 4, 0.63 mg/ml): − (− OD600 >0.05) | growth (OD600) (S. aureus (USA300); Table 4, 2.50 mg/ml): − (− OD600 >0.05) | growth (OD600) (S. aureus (USA300); Table 4, 5 mg/ml): − (− OD600 >0.05) | growth (OD600) (S. aureus (USA300); Table 4, 10 mg/ml): − (− OD600 >0.05) | growth (OD600) (S. aureus (USA300); Table 4, 20 mg/ml): − (− OD600 >0.05) | visible growth (S. aureus (USA300); UV-4B 0.04 mg/ml): + | visible growth (S. aureus (USA300); UV-4B 0.08 mg/ml): + | visible growth (S. aureus (USA300); UV-4B 0.16 mg/ml): + | visible growth (S. aureus (USA300); UV-4B 0.31 mg/ml): + | visible growth (S. aureus (USA300); UV-4B 0.63 mg/ml): + | visible growth (S. aureus (USA300); UV-4B 2.50 mg/ml): − | visible growth (S. aureus (USA300); UV-4B 5 mg/ml): − | visible growth (S. aureus (USA300); UV-4B 10 mg/ml): − | visible growth (S. aureus (USA300); UV-4B 20 mg/ml): −
